We go through two compounds from US12697330B2, “Therapeutic methods using vadadustat” (Akebia Therapeutics, Inc., priority 2021, dated 2026).

Type in all cases: in vivo, human
The test system of data set [1] is total iron binding capacity (TIBC). The data set is described as follows: Phase 2a clinical trials in stage 3, 4, or 5 CKD patients: iron-related parameters.
The subject of data set [2] is healthy adults. Briefly: Drug interaction study with co-administration of vadadustat in healthy adults. To be noted: with probenecid, an inhibitor of UGT and OAT1/3 transporters. The source says:
Sulfasalazine. Other Breast Cancer Resistance Protein Substrates. and Probenecid. Exposures to sulfasalazine (moderately) and mesalamine (mildly) were increased with co-administration of vadadustat based on a study in healthy adults. In subjects taking vadadustat, sulfasalazine and other clinically relevant substrates of the breast cancer resistance protein (BCRP) transporter (e.g., sulfasalazine, methotrexate, mitoxantrone, imatinib, irinotecan, lapatinib, topotecan, tenofovir, glecaprevir, pibrentasvir, or sofosbuvir), caution should be taken during the study. Probenecid, an inhibitor of UDP-glucuronosyltransferase (UGT) and the organic anion transporter (OAT)1/3 transporters, increased vadadustat area under the curve and is prohibited during the study.

Data set [3] is described as follows: Phase 1b study: safety and tolerability. The source says: All subjects were followed for safety for 30 days after the Day 10 visitor 30 days after their last dose of study drug (vadadustat or ESA) if they discontinued study drug treatment early. Subjects returned to the clinic for safety assessments 2-5 days after completing Day 10/EOT and concluded the study with a follow-up telephone call to assess for AEs and concomitant medications 30 days after their last dose of study drug.
Safety Endpoints. Safety could be evaluated by: adverse events (AE), electrocardiogram (ECG), vital signs measurements, and clinical laboratory values.
Safety Population was defined as all subjects who received at least one dose of study drug. This population was analyzed based upon the actual treatment received.

Data set [4] is described as follows: Phase 2 study, Main Study: pharmacokinetics (vadadustat and vadadustat-O-glucuronide concentration). How it is done:
PK/PD Endpoints. An exposure-response analysis of vadadustat and PD measures were conducted as deemed appropriate. The PK parameters included (but were not limited to) the following: area under concentration-time curve from dosing to last measurable concentration (AUClast), area under concentration-time curve from dosing to infinity (AUCinf), Cmax, apparent total body clearance (CL/F), apparent volume of distribution (Vd/F), and terminal half-life (t1/2). The PD parameters included (but were not limited to) the following: EPO, reticulocytes, iron, ferritin, TIBC, and hepcidin.
PK population: included all randomized subjects who received study drug (vadadustat or epoetin alfa) and had enough drug concentrations to estimate AUC and Cmax. Analysis of this population was based on the dose amount taken at the date of PK sampling for the vadadustat group.

Data set [5] in a line: Phase 1b study: pharmacokinetics of vadadustat and its metabolites in plasma of hemodialysis subjects with anemia associated with CKD. How it is done: The primary objective of the study was to assess the pharmacokinetics (PK) of vadadustat 600, 750, and 900 mg daily, and IV ESA (darbepoetin alfa or epoetin alfa) in hemodialysis subjects with anemia associated with CKD. Additional objectives included to evaluate the pharmacodynamics (PD) of vadadustat 600, 750, and 900 mg daily, and IV ESA (darbepoetin alfa or epoetin alfa) in hemodialysis subjects with anemia associated with CKD and to assess the safety and tolerability of vadadustat 600, 750, and 900 mg daily and IV ESA (darbepoetin alfa or epoetin alfa) in hemodialysis subjects with anemia associated with CKD.
Study Design. This was a Phase 1b, randomized, open-label study to evaluate the PK, PD, safety, and tolerability of vadadustat 600, 750, or 900 mg daily, or ESA (darbepoetin alfa or epoetin alfa) in hemodialysis subjects with anemia associated with CKD. The study included a 28-day Screening and Randomization period, a 10-day Treatment Period, and a 30-day Safety Follow up Period after the last dose of study drug (vadadustat or ESA). For subjects randomized to vadadustat, study duration also included an ESA washout period of a minimum of 5 days for epoetin alfa or 9 days for darbepoetin alfa or 9-day ESA Washout period prior to dosing on Day 1.
A total of 46 subjects were enrolled in the study. Written informed consent were obtained before any screening procedures were performed. Subjects were screened within 28 days prior to randomization. Eligible subjects were randomized in a 2:2:2:1 ratio to 1 of 4 treatment groups (600, 750, or 900 mg vadadustat QD, or ESA. Randomized subjects began their 10-day Treatment Period within 36 days of initiating screening.
Eligible subjects were randomly assigned in a 2:2:2:1 ratio to 1 of 4 treatment groups: Group 1—vadadustat 600 mg once daily (QD); Group 2—vadadustat 750 mg QD; Group 3—vadadustat 900 QD; and Group 4—IV ESA. Randomization was stratified by the mean weekly ESA dose calculated over a period of 8 weeks prior to the randomization visit. For darbepoetin, the groups were divided into low dose darbepoetin alfa group (<0.5 μg/kg/week) and high dose darbepoetin alfa group (>0.5 to <1.5 μg/kg/week). For epoetin, the groups were divided into low dose epoetin alfa group (≤90 U/kg/week) and high dose epoetin alfa group (>90 to <300 U/kg/week).
Subjects began dosing on Day 1 and took vadadustat at approximately the same time each day for a total of 10 days. On Day 1 and Day 8, subjects took vadadustat after all predose procedures are completed and within 30 minutes prior to the start of dialysis so that the 1-hour post dose blood sample for PK and PD was collected during dialysis. Vadadustat could be taken with or without food. Subjects were instructed to make every effort to take the drug consistently, either with or without food. Subjects were instructed to swallow the tablets whole with water.
PK and EPO Sample. For each vadadustat treatment group, blood samples for vadadustat PK (and its metabolites) and EPO were collected at the following time points: Day 1: predose, and at 1, 2, 3, 4, 5, 8, and 11 hours post dose; Day 2: 24 hours (−2 hours) post Day 1 dose; Day 6: blood sample for EPO analysis only was collected predose on Day 6; Day 8: predose, and at 1, 2, 3, 4, 5, 8, 11 hours post dose, Day 10 or EOT: predose. For the ESA treatment group, blood samples for analysis of EPO were collected at the following time points: Day 1: predose, and at 0.25, 1, 2, 3, 4, 5, 8, and 11 hours post dose; Day 2: 24 hours (−2 hours) post Day 1 dose.
Primary Endpoints. […]

Broadly, the Tmax is the time at which the peak concentration occurs.

Turning to `O=C(O)CNC(=O)c1ncc(-c2cccc(Cl)c2)cc1O` [Compound 1, {[5-(3-chlorophenyl)-3-hydroxypyridine-2-carbonyl]amino}acetic acid], in data set [1], the TIBC versus dose entry is reported as “dose-related increase”, the “serum iron levels with the increase in TIBC” value was “not associated with an increase in serum iron levels” and the “transferrin saturation (TSAT)” value is recorded as “decrease”. In data set [1] (6 weeks post administration, compared to placebo treated patients), the “total iron binding capacity (TIBC) levels” value is on record as “increase”.

With `O=C(O)CNC(=O)c1ncc(-c2cccc(Cl)c2)cc1O` [vadadustat, {[5-(3-chlorophenyl)-3-hydroxypyridine-2-carbonyl]amino}acetic acid], the “vadadustat area under the curve” value in data set [2] is “increased”. Moreover, in data set [3] (3 vadadustat treatment arms), the “incidence of drug-related Treatment Emergent Adverse Events (TEAEs)” value is “infrequent and similar across all 3 treatment arms”. Besides, the safety concerns entry in data set [3] (600, 750, 900 mg QD, 10 days) is “No major safety concerns were observed”. Moreover, the tolerability entry in data set [3] (oral administration, 600, 750, 900 mg QD, 10 days) is reported as “generally well tolerated”. In addition, the concentrations versus dose result in data set [4] (TIW group) is “No dose dependent increases in concentrations”. In addition, in data set [4] (Week 1, Week 1+1 day, and Week 11), the “mean concentration versus time profiles, dose dependency” value was “concentrations increased with dose levels”. In addition, the “vadadustat exposure (AUC0-24 and Cmax) versus dose” value in data set [5] (Day 1 and Day 8) is listed as “dose-dependent increase”. Moreover, the “exposure for vadadustat, as measured by AUC0-24, versus dose” value in data set [5] (Day 1 dosing, 600 to 750 to 900 mg) was “increased with increasing dose”. Moreover, the “Mean apparent total body clearance (CL/F) values across doses” value in data set [5] (Day 8, 600, 750, 900 mg) is given as “similar”. In data set [5] (human, plasma, oral, 600, 750, and 900 mg groups, Day 1 and Day 8, during the dialysis, read-out: median Tmax of vadadustat), the time to peak (Tmax) was in the range of 2 to 3 h. The accumulation versus dose entry in data set [5] (most pronounced in the 900 mg vadadustat treatment group) is “dose-dependent increase in accumulation”.
